Data taken from ChEMBL document CHEMBL4354782, “Quinolone antibiotics” (Medchemcomm, 2019).
Converted amounts (≈) assume the structure as drawn.

How the values were obtained:
Haemophilus influenzae = assay: Antibacterial activity against Haemophilus influenzae with horse blood by agar diffusion method; type: functional
[1] = Cmax in human at 0.75 g, po bid; details: in vivo
Enterococcus = assay: Antibacterial activity against Enterococcus by agar diffusion method; type: functional
Streptococcus pyogenes = assay: Antibacterial activity against Streptococcus pyogenes by agar diffusion method; type: functional
Escherichia coli = assay: Antibacterial activity against Escherichia coli by agar diffusion method; type: functional
Bacteroides fragilis = assay: Antibacterial activity against Bacteroides fragilis by agar diffusion method; type: functional
Klebsiella = assay: Antibacterial activity against Klebsiella by agar diffusion method; type: functional
[2] = AUC in human at 0.75 g, po bid; details: in vivo
Streptococcus pneumoniae = assay: Antibacterial activity against Streptococcus pneumoniae by agar diffusion method; type: functional
[3] = AUC in human at 0.2 g, po bid; type: ADME, organism-based; details: in vivo
[4] = Cmax in human at 0.2 g, po bid; type: ADME, organism-based; set-up: dose 0.2 g, route oral; details: in vivo
[5] = Half life in human at 0.2 g, po bid; type: ADME, organism-based; details: in vivo
Staphylococcus aureus = assay: Antibacterial activity against Staphylococcus aureus by agar diffusion method; type: functional
Homo sapiens = species on record: Homo sapiens; assay: Phototoxicity in human; type: organism-based; details: in vivo
[6] = Protein binding in human at 0.2 g, po bid; type: ADME, organism-based; details: in vivo, read-out: PB (converted)
Clostridium perfringens = assay: microbe, parasite or virus in culture
Pseudomonas aeruginosa = assay: Antibacterial activity against Pseudomonas aeruginosa by agar diffusion method; type: functional
[7] = AUC in human at 0.6 g, po; type: ADME; details: in vivo
[8] = Half life in human at 0.6 g, po; type: ADME; details: in vivo
[9] = Protein binding in human at 0.6 g, po; type: ADME; details: in vivo, read-out: PB (converted)
[10] = Cmax in human at 0.6 g, po; type: ADME; set-up: dose 0.6 g, route oral; details: in vivo
[11] = Cmax in human at 0.4 g, po; type: ADME; set-up: dose 0.4 g, route oral; details: in vivo
[12] = Half life in human at 0.4 g, po; type: ADME; details: in vivo
[13] = AUC in human at 0.4 g, po; type: ADME; details: in vivo
[14] = Protein binding in human at 0.4 g, po; type: ADME; details: in vivo; for fraction unbound: read-out: PB (converted)
[15] = Half life in human at 0.32 g, po; type: ADME; details: in vivo
[16] = Cmax in human at 0.32 g, po; type: ADME; set-up: dose 0.32 g, route oral; details: in vivo
[17] = AUC in human at 0.32 g, po; type: ADME; details: in vivo
[18] = Protein binding in human at 0.32 g, po; type: ADME; details: in vivo, read-out: PB (converted)
[19] = Toxicity in human assessed as arthralgia effect
[20] = Cardiotoxicity in human QTc prolongation; type: toxicity
[21] = Toxicity in human assessed as gastrointestinal effect
[22] = Toxicity in human assessed as hepatic eosinophilia effect
[23] = Toxicity in human assessed as CNS effect by measuring alteration in mentation
[24] = AUC in human at 0.4 g, po by HPLC analysis; type: ADME, organism-based; details: in vivo
[25] = Cmax in human at 0.4 g, po by HPLC analysis; type: ADME, organism-based; set-up: dose 0.4 g, route oral; details: in vivo
[26] = Half life in human at 1 g, po administered for 4 times; type: ADME, organism-based; details: in vivo
[27] = Protein binding in human at 0.4 g, po bid; type: ADME, organism-based; details: in vivo, read-out: PB (converted)
[28] = AUC in human at 0.4 g, po bid; type: ADME, organism-based; details: in vivo
[29] = Cmax in human at 0.4 g, po bid; type: ADME, organism-based; set-up: dose 0.4 g, route oral; details: in vivo
[30] = Half life in human at 0.4 g, po bid; type: ADME, organism-based; details: in vivo
[31] = Haemolytic activity in human; type: ADME, organism-based; details: in vivo, read-out: Activity
[32] = Toxicity in human assessed as thrombocytopenia
[33] = Toxicity in human assessed as renal failure
[34] = AUC in human at 0.3 g, po; type: ADME; details: in vivo
[35] = Toxicity in human assessed as CNS effect by measuring dizziness
[36] = Cmax in human at 0.3 g, po; type: ADME; set-up: dose 0.3 g, route oral; details: in vivo

Compound	MIC90 (Haemophilus influenzae) [µg/mL]	MIC90 (Enterococcus) [µg/mL]	MIC90 (Streptococcus pyogenes) [µg/mL]	MIC90 (Escherichia coli) [µg/mL]	MIC90 (Bacteroides fragilis) [µg/mL]	MIC90 (Klebsiella) [µg/mL]	MIC90 (Streptococcus pneumoniae) [µg/mL]	MIC90 (Staphylococcus aureus) [µg/mL]	MIC90 (Clostridium perfringens) [µg/mL]	MIC90 (Pseudomonas aeruginosa) [µg/mL]	Cmax [11] [ng/mL]	half-life [12] [h]	AUC [13] [ng·h/mL]	other results
O=C(O)c1cn(C2CC2)c2cc(N3CCNCC3)c(F)cc2c1=O [CIPROFLOXACIN]	0.03 (≈ 0.0905 µM)	4 (≈ 12.1 µM)	1 (≈ 3.02 µM)	0.03 (≈ 0.0905 µM)	16 (≈ 48.3 µM)	0.25 (≈ 0.754 µM)	–	–	–	–	–	–	–	Cmax [1]: 3500 ng/mL; AUC [2]: 30000 ng·h/mL
NC1CCN(c2c(F)cc3c(=O)c(C(=O)O)cn(C4CC4)c3c2Cl)C1 (stereo unspecified) [CLINAFLOXACIN]	0.01 (≈ 0.0273 µM)	0.25 (≈ 0.683 µM)	0.06 (≈ 0.164 µM)	0.01 (≈ 0.0273 µM)	0.25 (≈ 0.683 µM)	0.03 (≈ 0.082 µM)	0.12 (≈ 0.328 µM)	0.06 (≈ 0.164 µM)	0.12 (≈ 0.328 µM)	0.5 (≈ 1.37 µM)	–	–	–	AUC [3]: 18000 ng·h/mL; Cmax [4]: 1600 ng/mL; half-life [5]: 6 h; Activity (Homo sapiens): > 10%; fraction unbound [6]: 0.6
CCn1cc(C(=O)O)c(=O)c2cc(F)c(N3CCNCC3)nc21 [ENOXACIN]	0.12 (≈ 0.375 µM)	8 (≈ 25 µM)	> 64	0.25 (≈ 0.78 µM)	> 64	2 (≈ 6.24 µM)	64 (≈ 200 µM)	2 (≈ 6.24 µM)	> 64	> 64	–	–	–	AUC [7]: 29000 ng·h/mL; half-life [8]: 2 h; fraction unbound [9]: 0.4; Cmax [10]: 3700 ng/mL
C[C@H]1NCc2cc(-c3ccc4c(=O)c(C(=O)O)cn(C5CC5)c4c3OC(F)F)ccc21 [GARENOXACIN]	0.03 (≈ 0.0704 µM)	0.5 (≈ 1.17 µM)	0.25 (≈ 0.586 µM)	0.06 (≈ 0.141 µM)	1 (≈ 2.35 µM)	0.5 (≈ 1.17 µM)	0.12 (≈ 0.281 µM)	0.03 (≈ 0.0704 µM)	0.25 (≈ 0.586 µM)	16 (≈ 37.5 µM)	5800	15	59000	fraction unbound [14]: 0.13
COc1c(N2CCNC(C)C2)c(F)cc2c(=O)c(C(=O)O)cn(C3CC3)c12 (stereo unspecified) [GATIFLOXACIN]	0.03 (≈ 0.0799 µM)	1 (≈ 2.66 µM)	0.25 (≈ 0.666 µM)	0.06 (≈ 0.16 µM)	1 (≈ 2.66 µM)	0.25 (≈ 0.666 µM)	0.25 (≈ 0.666 µM)	0.25 (≈ 0.666 µM)	0.5 (≈ 1.33 µM)	4 (≈ 10.7 µM)	3800	12	33000	fraction unbound [14]: 0.8
CO/N=C1\CN(c2nc3c(cc2F)c(=O)c(C(=O)O)cn3C2CC2)CC1CN (stereo unspecified) [GEMIFLOXACIN]	0.06 (≈ 0.154 µM)	4 (≈ 10.3 µM)	0.06 (≈ 0.154 µM)	0.03 (≈ 0.077 µM)	–	0.25 (≈ 0.642 µM)	0.03 (≈ 0.077 µM)	0.06 (≈ 0.154 µM)	–	4 (≈ 10.3 µM)	–	–	–	half-life [15]: 7 h; Cmax [16]: 1000 ng/mL; AUC [17]: 9000 ng·h/mL; fraction unbound [18]: 0.4
Cc1c(F)c(N2CCNC(C)C2)cc2c1c(=O)c(C(=O)O)cn2C1CC1 (stereo unspecified) [GREPAFLOXACIN]	0.01 (≈ 0.0278 µM)	4 (≈ 11.1 µM)	1 (≈ 2.78 µM)	0.06 (≈ 0.167 µM)	8 (≈ 22.3 µM)	0.12 (≈ 0.334 µM)	0.25 (≈ 0.696 µM)	0.12 (≈ 0.334 µM)	1 (≈ 2.78 µM)	8 (≈ 22.3 µM)	1400	14	14000	Activity [19]: 0.5 to 2%; Activity [20]: 2.9%; Activity [21]: > 10%; Activity [22]: 0.006%; protein-bound fraction ([14]; read-out: PB): 0.5
C[C@H]1COc2c(N3CCN(C)CC3)c(F)cc3c(=O)c(C(=O)O)cn1c23.C[C@H]1COc2c(N3CCN(C)CC3)c(F)cc3c(=O)c(C(=O)O)cn1c23.O [LEVOFLOXACIN]	–	–	–	–	–	–	–	–	–	–	–	–	–	Activity [19]: 0.5 to 2%; Activity [23]: 0.026%
CCn1cc(C(=O)O)c(=O)c2cc(F)c(N3CCNC(C)C3)c(F)c21 (stereo unspecified) [LOMEFLOXACIN]	0.06 (≈ 0.171 µM)	4 (≈ 11.4 µM)	4 (≈ 11.4 µM)	0.06 (≈ 0.171 µM)	–	0.25 (≈ 0.712 µM)	4 (≈ 11.4 µM)	2 (≈ 5.69 µM)	–	2 (≈ 5.69 µM)	2800	8	26000	fraction unbound [14]: 0.9
COc1c(N2C[C@@H]3CCCN[C@@H]3C2)c(F)cc2c(=O)c(C(=O)O)cn(C3CC3)c12 [MOXIFLOXACIN]	0.06 (≈ 0.149 µM)	2 (≈ 4.98 µM)	–	0.06 (≈ 0.149 µM)	–	0.12 (≈ 0.299 µM)	–	0.06 (≈ 0.149 µM)	–	8 (≈ 19.9 µM)	–	–	–	AUC [24]: 30000 ng·h/mL; Cmax [25]: 3100 ng/mL
CCn1cc(C(=O)O)c(=O)c2ccc(C)nc21 [NALIDIXIC ACID]	2 (≈ 8.61 µM)	> 64	> 64	8 (≈ 34.4 µM)	> 64	16 (≈ 68.9 µM)	> 64	> 64	> 64	> 64	–	–	–	half-life [26]: 1.5 h
CCn1cc(C(=O)O)c(=O)c2cc(F)c(N3CCNCC3)cc21 [NORFLOXACIN]	0.06 (≈ 0.188 µM)	4 (≈ 12.5 µM)	4 (≈ 12.5 µM)	0.12 (≈ 0.376 µM)	> 64	0.5 (≈ 1.57 µM)	16 (≈ 50.1 µM)	1 (≈ 3.13 µM)	–	2 (≈ 6.26 µM)	–	–	–	fraction unbound [27]: 0.85; AUC [28]: 10000 ng·h/mL; Cmax [29]: 1500 ng/mL; half-life [30]: 3 h
CC1COc2c(N3CCN(C)CC3)c(F)cc3c(=O)c(C(=O)O)cn1c23 (stereo unspecified) [OFLOXACIN]	0.03 (≈ 0.083 µM)	2 (≈ 5.53 µM)	2 (≈ 5.53 µM)	0.12 (≈ 0.332 µM)	16 (≈ 44.3 µM)	0.5 (≈ 1.38 µM)	2 (≈ 5.53 µM)	0.5 (≈ 1.38 µM)	1 (≈ 2.77 µM)	4 (≈ 11.1 µM)	–	–	–	fraction unbound [27]: 0.6; AUC [28]: 64000 ng·h/mL; Cmax [29]: 4800 ng/mL; half-life [30]: 6 h
C[C@@H]1CN(c2c(F)c(N)c3c(=O)c(C(=O)O)cn(C4CC4)c3c2F)C[C@H](C)N1 [SPARFLOXACIN]	0.03 (≈ 0.0765 µM)	2 (≈ 5.1 µM)	1 (≈ 2.55 µM)	0.06 (≈ 0.153 µM)	4 (≈ 10.2 µM)	0.5 (≈ 1.27 µM)	0.5 (≈ 1.27 µM)	0.12 (≈ 0.306 µM)	0.25 (≈ 0.637 µM)	4 (≈ 10.2 µM)	1000	18	20000	Activity [19]: 0.5 to 2%; Activity (Homo sapiens): > 10%; Activity [20]: 2.9%; Activity [21]: > 10%; fraction unbound [14]: 0.6
CC1CN(c2cc3c(cc2F)c(=O)c(C(=O)O)cn3-c2ccc(F)cc2F)CCN1 (stereo unspecified) [TEMAFLOXACIN]	–	–	–	–	–	–	–	–	–	–	–	–	–	hemolysis [31]: 0.02%; Activity [32]: 0.02%; Activity [33]: 0.02%
N[C@@H]1[C@H]2CN(c3nc4c(cc3F)c(=O)c(C(=O)O)cn4-c3ccc(F)cc3F)C[C@@H]12 [TROVAFLOXACIN]	0.01 (≈ 0.024 µM)	1 (≈ 2.4 µM)	–	0.06 (≈ 0.144 µM)	–	–	0.12 (≈ 0.288 µM)	0.03 (≈ 0.0721 µM)	–	1 (≈ 2.4 µM)	–	–	–	AUC [34]: 40000 ng·h/mL; Activity [35]: 2 to 11%; Cmax [36]: 2500 ng/mL; Activity [22]: 12 to 16%
